# Like-named read-outs stand apart in the source and are kept apart here.
# Assays:
# [1] = tested on: adjuvant arthritis, uninjected (left) hind paw inflammation; test: Adjuvant arthritis standard pharmacological test procedure; assay type: in vivo, male Wistar Lewis rats; conditions: 2 mg/kg, oral, uninjected paw at day 16; for Percent change in adjuvant arthritis versus control: 7 doses day 0-14, more negative = more potent
# Method: (§1) Immunosuppressive activity for representative compounds of this invention was evaluated in an in vitro standard pharmacological test procedure to measure lymphocyte proliferation (LAF) and in three in vivo standard pharmacological test procedures. The pinch skin graft test procedure measures the immunosuppressive activity of the compound tested as well as the ability of the compound tested to inhibit or treat transplant rejection. The adjuvant arthritis standard pharmacological test procedure, which measures the ability of the compound tested to inhibit immune mediated inflammation. The adjuvant arthritis test procedure is a standard pharmacological test procedure for rheumatoid arthritis. Representative compounds of this invention were also evaluated in a heart allograft standard pharmacological test procedure which measures immunosuppressive activity of the compound tested as well as the ability of the compound tested to inhibit or treat transplant rejection. The procedures for these standard pharmacological test procedures are provided below.
# The adjuvant arthritis standard pharmacological test procedure measures the ability of test compounds to prevent immune mediated inflammation and inhibit or treat rheumatoid arthritis. The following briefly describes the test procedure used. A group of rats (male inbread Wistar Lewis rats) are pre-treated with the compound to be tested (1 h prior to antigen) and then injected with Freud's Complete Adjuvant (FCA) in the right hind paw to induce arthritis. The rats are then orally dosed on a Monday, Wednesday, Friday schedule from day 0-14 for a total of 7 doses. Both hind paws are measured on days 16, 23, and 30. The difference in paw volume (mL) from day 16 to day 0 is determined and a percent change from control is obtained. […] The right hind paw inflammation, on the other hand, is caused by nonspecific inflammation. Compounds were tested at a dose of 2 mg/kg.
# pinch skin graft = test: Pinch skin graft survival test procedure; assay type: in vivo, male BALB/c donors, male C3 H(H-2K) recipients (mice); conditions: 4 mg/kg; intraperitoneally or orally; untreated grafts usually rejected within 6-7 days
# Method: as §1
# Representative compounds of this invention were also evaluated in an in vivo test procedure designed to determine the survival time of pinch skin graft from male BALB/c donors transplanted to male C3 H(H-2K) recipients. The method is adapted from Billingham R. E. and Medawar P. B., J. Exp. Biol. 28:385-402, (1951). Briefly, a pinch skin graft from the donor was grafted on the dorsum of the recipient as a allograft, and an isograft was used as control in the same region. The recipients were treated with either varying concentrations of test compounds intraperitoneally or orally. Rapamycin was used as a test control. Untreated recipients serve as rejection control. The graft was monitored daily and observations were recorded until the graft became dry and formed a blackened scab. This was considered as the rejection day. The mean graft survival time (number of days±S.D.) of the drug treatment group was compared with the control group. […] Results are expressed as the mean survival time in days. Untreated (control) pinch skin grafts are usually rejected within 6-7 days. Compounds were tested using a dose of 4 mg/kg.
# heart allograft = test: Heterotropic heart allograft standard pharmacological test procedure; assay type: in vivo, BN rat neonate donors, male Lewis rat recipients; conditions: 300 μg/day, i.p.; untreated rejected in about 9-10 days
# Method: as §1
# The ability of the compounds of this invention to induce immunosuppression and inhibit or treat transplantation rejection was evaluated in a heterotropic heart allograft standard pharmacological test procedure that emulates transplantation rejection that occurs in humans. The following briefly describes the procedure that was used. […]
# [2] = tested on: lymphocyte proliferation (thymus cells of normal BALB/c mice); test: Comitogen-induced thymocyte proliferation procedure (LAF); assay type: cell-based; conditions: Mus musculus, read-out: LAF IC50
# Method: as §1
# The comitogen-induced thymocyte proliferation procedure (LAF) was used as an in vitro measure of the immunosuppressive effects of representative compounds. Briefly, cells from the thymus of normal BALB/c mice are cultured for 72 hours with PHA and IL-1 and pulsed with tritiated thymidine during the last six hours. Cells are cultured with and without various concentrations of rapamycin, cyclosporin A, or test compound. Cells are harvested and incorporated radioactivity is determined. Inhibition of lymphoproliferation is assessed as percent change in counts per minute from non-drug treated controls. For each compound evaluated, rapamycin was also evaluated for the purpose of comparison. An IC50 was obtained for each test compound as well as for rapamycin. […] The results obtained are provided as an IC50.
# immunosuppression = conditions: cited from earlier work
# Candida albicans = conditions: in vitro and in vivo; cited from earlier work
# tumor = conditions: alone or in combination with picibanil; cited from earlier work
# [3] = tested on: adjuvant arthritis, a model for rheumatoid arthritis; conditions: in vivo; cited from earlier work
# [4] = tested on: experimental allergic encephalomyelitis, a model for multiple sclerosis; conditions: in vivo; cited from earlier work
# [5] = tested on: formation of IgE-like antibodies; conditions: in vivo; cited from earlier work
# [6] = 72 h culture with PHA and IL-1, tritiated thymidine incorporation
SMILES,Percent change in adjuvant arthritis versus control [1] [%],Skin graft survival (mean survival time ± S.D.) (pinch skin graft) [days],"IC50 [2, 6] [nM]",also measured
"CO[C@H]1C[C@@H]2CC[C@@H](C)[C@@](O)(O2)C(=O)C(=O)N2CCCC[C@H]2C(=O)O[C@H]([C@H](C)C[C@@H]2CC[C@@H](OC(=O)c3cccnc3C)[C@H](OC)C2)CC(=O)[C@H](C)/C=C(\C)[C@@H](O)[C@@H](OC)C(=O)[C@H](C)C[C@H](C)/C=C/C=C/C=C/1C [Example 1, Rapamycin 42-ester with 2-methylnicotinic acid]",-88,11.2 ± 0.8,1,Heart allograft survival (mean survival time) (heart allograft): 29.9 days
"CO[C@H]1C[C@@H]2CC[C@@H](C)[C@@](O)(O2)C(=O)C(=O)N2CCCC[C@H]2C(=O)O[C@H]([C@H](C)C[C@@H]2CC[C@@H](OC(=O)c3cccnc3)[C@H](OC)C2)CC(=O)[C@H](C)/C=C(\C)[C@@H](O)[C@@H](OC)C(=O)[C@H](C)C[C@H](C)/C=C/C=C/C=C/1C [Example 2, Rapamycin 42-ester with nicotinic acid]",,9.60 ± 0.89,0.17,
"CO[C@H]1C[C@@H]2CC[C@@H](C)[C@@](O)(O2)C(=O)C(=O)N2CCCC[C@H]2C(=O)O[C@H]([C@H](C)C[C@@H]2CC[C@@H](OC(=O)c3ccc(C)nc3)[C@H](OC)C2)CC(=O)[C@H](C)/C=C(\C)[C@@H](O)[C@@H](OC)C(=O)[C@H](C)C[C@H](C)/C=C/C=C/C=C/1C [Example 3, Rapamycin 42-ester with 6-methylpyridine-3-carboxylic acid]",-87,12.5 ± 0.58,0.6,
"CO[C@H]1C[C@@H]2CC[C@@H](C)[C@@](O)(O2)C(=O)C(=O)N2CCCC[C@H]2C(=O)O[C@H]([C@H](C)C[C@@H]2CC[C@@H](OC(=O)c3cnc(C)cn3)[C@H](OC)C2)CC(=O)[C@H](C)/C=C(\C)[C@@H](O)[C@@H](OC)C(=O)[C@H](C)C[C@H](C)/C=C/C=C/C=C/1C [Example 4, Rapamycin 42-ester with 5-methylpyrazine-2-carboxylic acid]",-90,11.33 ± 0.82,0.28,
C=CC[C@@H]1/C=C(\C)C[C@H](C)C[C@H](OC)[C@H]2O[C@@](O)(C(=O)C(=O)N3CCCC[C@H]3C(=O)O[C@H](/C(C)=C/[C@@H]3CC[C@@H](O)[C@H](OC)C3)[C@H](C)[C@@H](O)CC1=O)[C@H](C)C[C@@H]2OC [FK-506],,,,effective as immunosuppressive agents (immunosuppression): effective
CO[C@H]1C[C@@H]2CC[C@@H](C)[C@@](O)(O2)C(=O)C(=O)N2CCCC[C@H]2C(=O)O[C@H]([C@H](C)C[C@@H]2CC[C@@H](O)[C@H](OC)C2)CC(=O)[C@H](C)/C=C(\C)[C@@H](O)[C@@H](OC)C(=O)[C@H](C)C[C@H](C)/C=C/C=C/C=C/1C [rapamycin],,,,"less immune induced inflammation than control rats [1]: 70-90%; antifungal activity (Candida albicans): antifungal activity, particularly against Candida albicans, both in vitro and in vivo; antitumor activity (tumor): antitumor activity; effectiveness in adjuvant arthritis model [3]: effective; effectiveness in experimental allergic encephalomyelitis model [4]: effective; inhibition of formation of IgE-like antibodies [5]: effectively inhibited; IC50 ([2]; 72 h): 0.5 to 1.9 nM"

# Source: patent US5385909A, “Heterocyclic esters of rapamycin” (American Home Products Corporation, priority 1993, dated 1995)
